From patent publication US20230086469A1, “AUTOANTIGENIC PEPTIDES (CALVICIFIV), PRESENTED BY TOLEROGENIC DENTRITIC CELLS, USEFUL FOR THE PERSONALIZED TREATMENT OF RHEUMATOID ARTHRITIS” (UNIVERSIDAD DE CHILE, priority 2019, published 2023)

How the values were obtained:
Assay type in all cases: cell-based, human
[1] = tested on: autologous CD4+ T cells from patients with RA; experiment: Co-culture of peptide-pulsed Bay-DCs with autologous CFSE-stained CD4+ T cells; conditions: Bay-DCs pulsed with peptide in comparison to mDCs, 5 days co-culture; for expression of IFN-γ by CD4+ T lymphocytes: FIG. 4A; for decrease of IL-17 expression by CD4+ T lymphocytes: FIG. 4B
From the text: (§1) FIGS. 4A-4C. Modulation of antigen-specific CD4+ T cell responses by tDCs generated using different protocols and pulsed with autoantigenic peptides. Two different protocols were used for tDCs generation from peripheral blood monocytes of RA patients: 1) DCs treated with Bay 11-082 (Bay-DCs); and 2) DCs treated with vitamin D3, dexamethasone and LPS (VD3-DCs); mDCs were used as control. DCs were pulsed with previously selected peptides or mixtures of them, using a peptide derived from Aggrecan, as a positive control. Then, DCs were co-cultured with autologous CFSE-stained CD4+ T cells and, after 5 days, 8 the percentage of proliferating CD4+ T cells (CFSElo) expressing IFN-γ (FIG. 4A), IL-17 (FIG. 4B) or TNF-α (FIG. 4C), was evaluated by flow cytometry. The percentage of decrease in the expression of proinflammatory cytokines by CD4+ T cells co-cultured with tDCs in comparison to mDCs was calculated.
In order to evaluate the potential of autoantigenic peptides to load tolerogenic DCs generated from different protocols to modulate antigen-specific CD4+ T cell responses, co-culture assays of tDCs pulsed with autoantigenic peptides and autologous CD4+ T cells from patients with RA were performed. DCs were generated from monocytes according to the protocol described of example 2. To differentiate other tolerogenic dendritic cells types, DCs generated from monocytes were modulated with Bay-11-7982 an irreversible inhibitor of NF-κB (Bay-DCs), or modulated with Vitamin D3, dexamethasone and LPS (VD3-DCs). As control, mature DCs (mDCs) treated only with MPLA were used.
After this, the cells were pulsed with the autoantigenic peptides in the same way as an example 2, independently with the following autoantigenic peptides; 3 peptides derived from vimentin, such as Vimentin-1, Vimentin-1 citrullinated, Vimentin-2 citrullinated, or autoantigenic peptides derived from Fibrinogen, Calreticulin and Fibronectin, Aggrecan, as a positive control was used of the activation of the autologous CD4+ T cells, and un-pulsed DCs were used as a basal activation control. Besides mixtures were considered: Mix 1: Vimentin-1 and Vimentin-1 citrullinated; Mix 2: Vimentin-2 citrullinated and Calreticulin; Mix 3: Mix 1+Mix 2.
(§2) tDCs were then co-cultured with CFSE-stained CD4+ T cells and, after 5 days of culture, the percentage of proliferating CD4+T lymphocytes, expressing IFN-γ, IL-17 and TNF-α, was evaluated by flow cytometry. In each case, the percentage of decrease in the expression of proinflammatory cytokines by CD4+ T cells co-cultured with tDCs in comparison to mDCs was calculated.

[2] = tested on: autologous CD4+ T cells from patients with RA; experiment: Co-culture of peptide-pulsed MPLA-tDCs with autologous CFSE-stained CD4+ T cells; conditions: MPLA-tDCs pulsed with peptide in comparison to mDCs, 5 days co-culture; for expression of IFN-γ by proliferating CD4+ T lymphocytes: FIG. 3A
From the text: FIGS. 3A-3C Modulation of antigen-specific CD4+ T cell responses by tolerogenic dendritic cells (tDCs) treated with dexamethasone and monophosphoryl lipid A (MPLA-tDCs) and pulsed with autoantigenic peptides. MPLA-tDCs and MPLA-matured DCs (mDCs), as activation control, were generated from peripheral blood monocytes of RA patients, and pulsed with previously selected peptides or mixtures of them, using a peptide derived from Aggrecan, previously described in literature, as a control peptide. Subsequently, DCs were co-cultured with autologous CFSE-stained CD4+ T cells and, after 5 days, the percentage of proliferating CD4+ T cells (CFSElo) expressing IFN-γ (FIG. 3A), L-17 (FIG. 3B) or TNF-α (FIG. 3C) was evaluated by flow cytometry. […] To compare the expression of cytokines induced by each type of DCs, a T test was performed (*p<0.05).
In order to evaluate the ability of tDCs to modulate antigen-specific CD4+ T cell responses, co-culture assays of tDCs pulsed with autoantigenic peptides and autologous CD4+ T cells from patients with RA were performed. DCs were generated from monocytes isolated from peripheral blood of patients with RA, cultured at a concentration of 2-3×10^6 cells/ml in serum-free AIM-V medium in the presence of 500 U/mL of recombinant human interleukin-4 (rhIL-4) and recombinant human […] colony stimulating factor (rhGM-CSF), for 5 days, at 37° C. and 5% CO2. […]
The effect of autoantigenic peptides to modulate effector CD4+ T cell responses of patients with RA, when are presented by tDCs generated using the protocol described in this application. […] DCs were then co-cultured with CFSE-stained CD4+ T cells and, after 5 days of culture, the percentage of proliferating CD4+T lymphocytes, expressing IFN-γ, IL-17 and TNF-α, was evaluated by flow cytometry. In each case, the percentage of decrease in the expression of proinflammatory cytokines by CD4+ T cells co-cultured with tDCs in comparison to mDCs was calculated.

[3] = tested on: autologous CD4+ T cells from patients with RA; experiment: Co-culture of peptide-pulsed VD3-DCs with autologous CFSE-stained CD4+ T cells; conditions: VD3-DCs pulsed with peptide in comparison to mDCs; 5 days co-culture; FIG. 4B
From the text: as §1, with “calculated. […]” for “calculated.”
as §2

Substance	expression of IFN-γ by CD4+ T lymphocytes [1]	expression of IFN-γ by proliferating CD4+ T lymphocytes [2]	expression of TNF-α by proliferating CD4+ T lymphocytes ([2]; FIG. 3C)	decrease of IL-17 expression by CD4+ T lymphocytes [1]	decrease of IL-17 expression by CD4+ T lymphocytes [3]
Fibronectin	significantly reduced	significantly reduced	significantly decrease		
Fibrinogen				high percentage of decrease	high percentage of decrease
Calreticulin	significantly reduced	significantly reduced		high percentage of decrease	high percentage of decrease
